According to PMC12797170, “Potent Competitive Inhibitors of Ecto-5′-nucleotidase (CD73) based on 6‑(Het)aryl-7-deazapurine Ribonucleoside 5′‑O‑Bisphosphonates” (ACS Pharmacology & Translational Science, 2025):
Converted amounts (≈) assume the structure as drawn.

Columns and labels:
[1] = Kinetic solubility in PBS; type: physicochemical; settings: phosphate-buffered saline, pH 7.4, aqueous buffer, kinetic from dmso stock
Method in brief: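 DMSO stocks diluted into PBS pH 7.4 to 100 μM and shaken 2 h at room temperature in duplicate, then filtered by centrifugation. Filtrates diluted 1:99 in 50% acetonitrile. Quantified by Echo-MS against calibration standards spanning 0.05–4 μM.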

[2] = system: CD8+ T cells; test: CD8+ T cell activation assay (CD25, IFN-γ, granzyme B); type: cell-based, human; settings: granzyme B and IFN-γ, 60 h
Description: 6 CD73 inhibition partially reverses the immunosuppressive effect of adenosine generated from AMP in CD8 ^ + T cells. CD8^+ T cells were activated using CD3/CD28 activation beads in the presence of 2.5 μM EHNA, with or without 1 mM AMP and CD73 inhibitors (500 nM or 50 nM). A. CD25 expression. The percentage of CD8^+ T cells expressing the activation marker CD25 was measured by flow cytometry 60 h after activation. Data represent technical triplicates. B. Cytokine secretion. Granzyme B and IFN-γ levels in the culture supernatant were quantified by ELISA 60 h after activation. The data represent technical duplicates from two independently treated wells.
Peripheral blood was obtained from healthy donors at the Military University Hospital Prague, following informed consent. CD8+ T cells were enriched using the RosetteSep Human CD8+ T Cell Enrichment Cocktail ([…] Technologies) according to the manufacturer’s instructions and subsequently isolated by density gradient centrifugation using SepMate tubes ([…] Technologies). Residual red blood cells were lysed using a red blood cell lysis buffer (155 mM NH4Cl, 12 mM NaHCO3, 0.1 mM EDTA, pH = 7.1–7.4). The isolated CD8+ T cells were resuspended in complete RPMI and counted using an automated cell counter.
CD8+ T cells were seeded at 5 × 10^4 cells/well in 50 μL of complete RPMI in a flat-bottom 96-well plate. […] This was followed by the addition of 10 μL of a CD73 inhibitor at either 5 μM or 500 nM (experimental wells) or 10 μL of complete RPMI (control wells). Subsequently, 20 μL of 5 mM AMP was added to all wells except those serving as controls for maximal T cell activation. […]
Following incubation, supernatants were collected for quantification of IFN-γ and granzyme B using ELISA. […] Finally, stained cells were washed and analyzed using a BD LSRFortessa flow cytometer. Data were processed and analyzed using FlowJo software (version 10.8.1) and GraphPad Prism 10.
Secretion of IFN-γ and granzyme B was quantified using Human IFN-γ DuoSet ELISA and Human Granzyme B DuoSet ELISA (R&D Systems) according to the manufacturer’s instructions. […]

In the case of `O=P(O)(O)CP(=O)(O)OC[C@H]1O[C@@H](n2ccc3c(-c4ccc5ccccc5c4)ncnc32)[C@H](O)[C@@H]1O` [4A.7], the solubility at 2 h [1] is reported as over 100 µM.

With `O=P(O)(O)CP(=O)(O)OC[C@H]1O[C@@H](n2ccc3c(-c4cccc5ccncc45)ncnc32)[C@H](O)[C@@H]1O` [4A.18] the solubility at 2 h [1] was 56 µM (≈ 30 µg/mL).

Molecule `O=P(O)(O)CP(=O)(O)OC[C@H]1O[C@@H](n2ccc3c(-c4cccc5c4CCCC5)nc(Cl)nc32)[C@H](O)[C@@H]1O` [7B.12] has a solubility at 2 h [1] of 85 µM (≈ 48.8 µg/mL).

Work on `O=P(O)(O)CP(=O)(O)OC[C@H]1O[C@@H](n2ccc3c(-c4ccc5c(c4)CCCC5)nc(Cl)nc32)[C@H](O)[C@@H]1O` [7B.23] yielded a solubility at 2 h [1] of 84 µM (≈ 48.2 µg/mL).

For `O=P(O)(O)CP(=O)(O)OC[C@H]1O[C@@H](n2ccc3c(-c4ccc(F)c5ccccc45)nc(Cl)nc32)[C@H](O)[C@@H]1O` [7B.28], the solubility at 2 h [1] was over 100 µM.

For `Cc1nc(-c2cccc3ccccc23)c2ccn([C@@H]3O[C@H](COP(=O)(O)CP(=O)(O)O)[C@@H](O)[C@H]3O)c2n1` [18E.6], the solubility at 2 h [1] was 89 µM (≈ 48.9 µg/mL) and the cytokine rescue efficacy [2] was “weakest effects”.

With `Cc1nc(-c2ccc3ccccc3c2)c2ccn([C@@H]3O[C@H](COP(=O)(O)CP(=O)(O)O)[C@@H](O)[C@H]3O)c2n1` [18E.7] the solubility at 2 h [1] was 78 µM (≈ 42.9 µg/mL) and the cytokine rescue efficacy [2] was “weakest effects”.

`O=P(O)(O)CP(=O)(O)OC[C@H]1O[C@@H](n2ccc3c(-c4ccc5c(c4)CCCC5)nc(I)nc32)[C@H](O)[C@@H]1O` [27H.23, [(5-{[2-Iodo-4-(5,6,7,8-tetrahydronaphthalen-2-yl)-7H-pyrrolo[2,3-d]pyrimidin-7-yl]-β-D-ribofuranosyl}oxy)phosphonomethyl]phosphonic Acid] showed a solubility at 2 h [1] of over 100 µM.
